Assay results: ChEMBL document CHEMBL1137135 (Bioorg Med Chem Lett, 2004)

Columns and labels:
[1] = In vitro inhibitory activity against Factor Xa
[2] = Binding affinity of compound towards Factor Xa
[3] = Plasma clearance of compound was determined in rat; type: ADME, organism-based
[4] = Half-life of compound was determined in rat; type: ADME; conditions: in vivo
[5] = Vz of compound was determined in rat; type: ADME, organism-based; conditions: in vivo, read-out: Vz
[6] = Bioavailability in rat; type: ADME, organism-based; conditions: in vivo
Rattus norvegicus = organism: Rattus norvegicus; test: In vitro anticoagulant activity of compound was determined in rat; type: functional

Row | Compound | IC50 [1] [nM] | further results
1 | CCCCOC(=O)NC(CNC(=O)c1ccc(-c2ccccc2S(N)(=O)=O)cc1)C(=O)Nc1ccc(Br)cn1 (configuration not stated) | 1250 | –
2 | CN(C)Cc1ccccc1-c1ccc(C(=O)N[C@H](CC(=O)Nc2ccc(Cl)cn2)C(=O)N2CCCCC2)cc1 | 1.7 | Ki [2]: 0.4 nM; clearance [3]: 178 mL/min/kg; half-life [4]: 1.18 h; Vd [5]: 14 L/kg; bioavailability [6]: 25.9%; 2X PT (Rattus norvegicus): 1.74 µM; TG 2X lag (Rattus norvegicus): 1 µM
3 | NS(=O)(=O)c1ccccc1-c1ccc(C(=O)NC(CC(=O)Nc2ccc(Br)cn2)C(=O)N2CCCCCC2)cc1 (configuration not stated) | 4.98 | –
4 | NC(CC(=O)Nc1ccc(Br)cn1)C(=O)Nc1ccc(-c2ccccc2S(N)(=O)=O)cc1 (configuration not stated) | 145 | –
5 | NS(=O)(=O)c1ccccc1-c1ccc(C(=O)NC(CC(=O)Nc2ccc(Br)cn2)C(=O)O)cc1 (configuration not stated) | 4.37 | Ki [2]: 1.72 nM; clearance [3]: 6.7 mL/min/kg; half-life [4]: 1 h; Vd [5]: 0.6 L/kg; bioavailability [6]: 4%; 2X PT (Rattus norvegicus): 74 µM
6 | COC(=O)C(CC(=O)Nc1ccc(Br)cn1)NC(=O)c1ccc(-c2ccccc2S(N)(=O)=O)cc1 (configuration not stated) | 24.7 | –
7 | NS(=O)(=O)c1ccccc1-c1ccc(C(=O)NCCNC(=O)c2cc3cc(Cl)ccc3[nH]2)cc1 | 760 | –
8 | NS(=O)(=O)c1ccccc1-c1ccc(C(=O)NCCC(=O)Nc2ccc(Br)cn2)cc1 | 12 | Ki [2]: 7.55 nM; clearance [3]: 35 mL/min/kg; half-life [4]: 1.77 h; Vd [5]: 5.4 L/kg; bioavailability [6]: 2.67%; TG 2X lag (Rattus norvegicus): 14 µM
9 | O=C(C[C@@H](NC(=O)c1ccc(-c2ccccc2CN2CCCC2)cc1)C(=O)N1CCCCC1)Nc1ccc(Cl)cn1 | 2 | –
10 | NS(=O)(=O)c1ccccc1-c1ccc(NC(=O)C(CC(=O)Nc2ccc(Br)cn2)NC(=O)Nc2ccccc2)cc1 (configuration not stated) | 37 | –
11 | CN(C)Cc1ccccc1-c1ccc(C(=O)N[C@H](CC(=O)Nc2ccc(Br)cn2)C(=O)N2CCCCC2)cc1 | 0.65 | Ki [2]: 0.14 nM; 2X PT (Rattus norvegicus): 1.98 µM; TG 2X lag (Rattus norvegicus): 0.42 µM
12 | CN(C)C(=N)c1ccc(C(=O)N[C@H](CC(=O)Nc2ccc(Br)cn2)C(=O)N2CCCCC2)cc1 | 4.6 | –
13 | COCCN(C)Cc1ccccc1-c1ccc(C(=O)N[C@@H](CC(=O)Nc2ccc(Br)cn2)C(=O)N2CCCCC2)cc1 | 940 | –
14 | NS(=O)(=O)c1ccccc1-c1ccc(C(=O)NC(CC(=O)Nc2ccc(Br)cn2)C(=O)Nc2ccccc2)cc1 (configuration not stated) | 26.5 | –
15 | NS(=O)(=O)c1ccccc1-c1ccc(NC(=O)/C=C/C(=O)Nc2ccc(Cl)cc2)cc1 (stereo in doubt; trans) | > 10000 | –
16 | NS(=O)(=O)c1ccccc1-c1ccc(C(=O)NC(CC(=O)Nc2ccc(Br)cn2)C(=O)NC2CCCC2)cc1 (configuration not stated) | 15.9 | –
17 | CN(C)CCN(C)C(=O)C(CC(=O)Nc1ccc(Br)cn1)NC(=O)c1ccc(-c2ccccc2S(N)(=O)=O)cc1 (configuration not stated) | 45.5 | –
18 | CN(C)C(=N)c1ccc(C(=O)N[C@H](CC(=O)Nc2ccc(Cl)cn2)C(=O)N2CCCCC2)cc1 | 12 | –
19 | NS(=O)(=O)c1ccccc1-c1ccc(NC(=O)CCC(=O)Nc2ccc(Cl)cc2)cc1 | 12 | –
20 | CN(C)CC(=O)NC(CC(=O)Nc1ccc(Br)cn1)C(=O)Nc1ccc(-c2ccccc2S(N)(=O)=O)cc1 (configuration not stated) | 215 | –
21 | CS(=O)(=O)NC(CNC(=O)c1ccc(-c2ccccc2S(N)(=O)=O)cc1)C(=O)Nc1ccc(Br)cn1 (configuration not stated) | 1250 | –
22 | COCCN(C)Cc1ccccc1-c1ccc(C(=O)N[C@@H](CC(=O)Nc2ccc(Cl)cn2)C(=O)N2CCCCC2)cc1 | 9.3 | –
23 | NS(=O)(=O)c1ccccc1-c1ccc(C(=O)NC(CC(=O)Nc2ccc(Br)cn2)C(=O)N2CCS(=O)(=O)CC2)cc1 (configuration not stated) | 40.1 | –
24 | NS(=O)(=O)c1ccccc1-c1ccc(NC(=O)CCC(=O)Nc2ccc(Br)cn2)cc1 | 20 | –
25 | O=C(C[C@H](NC(=O)c1ccc(-c2ccccc2CN2CCOCC2)cc1)C(=O)N1CCCCC1)Nc1ccc(Cl)cn1 | 3.6 | –

Row | Compound | IC50 [1] [nM] | further results
26 | NS(=O)(=O)c1ccccc1-c1ccc(C(=O)NCCNS(=O)(=O)c2ccc(Cl)cc2)cc1 | > 10000 | –
27 | NS(=O)(=O)c1ccccc1-c1ccc(C(=O)NCCNS(=O)(=O)c2cc3cc(Cl)ccc3[nH]2)cc1 | 1900 | –
28 | NS(=O)(=O)c1ccccc1-c1ccc(C(=O)NCCC(=O)Nc2ccc(Br)cc2)cc1 | 29 | –
29 | CN(C)Cc1nccn1-c1ccc(C(=O)N[C@H](CC(=O)Nc2ccc(Br)cn2)C(=O)N2CCCCC2)cc1 | 3.1 | –
30 | NS(=O)(=O)c1ccccc1-c1ccc(NC(=O)CCNC(=O)c2ccc(Cl)s2)cc1 | 130 | –
31 | CNCCNC(=O)C(CC(=O)Nc1ccc(Br)cn1)NC(=O)c1ccc(-c2ccccc2S(N)(=O)=O)cc1 (configuration not stated) | 43.4 | –
32 | NS(=O)(=O)c1ccccc1-c1ccc(NC(=O)CCC(=O)Nc2ccc(Br)cc2)cc1 | 65 | –
33 | NS(=O)(=O)c1ccccc1-c1ccc(NC(=O)C(CC(=O)Nc2ccc(Br)cn2)NC(=O)C2CCNCC2)cc1 (configuration not stated) | 194 | –
34 | O=C(C[C@@H](NC(=O)c1ccc(-c2ccccc2CN2CCOCC2)cc1)C(=O)N1CCCCC1)Nc1ccc(Br)cn1 | 1.1 | –
35 | NS(=O)(=O)c1ccccc1-c1ccc(NC(=O)C(CC(=O)Nc2ccc(Br)cn2)NC(=O)c2cccnc2)cc1 (configuration not stated) | 47.2 | –
36 | NS(=O)(=O)c1ccccc1-c1ccc(C(=O)NCCNC(=O)c2ccc(Br)cc2)cc1 | 960 | –
37 | CN(C)CCNC(=O)C(CC(=O)Nc1ccc(Br)cn1)NC(=O)c1ccc(-c2ccccc2S(N)(=O)=O)cc1 (configuration not stated) | 49.7 | –
38 | NS(=O)(=O)c1ccccc1-c1ccc(NC(=O)/C=C/C(=O)Nc2ccc(Cl)cc2)cc1 (stereo in doubt; cis) | 67 | –
39 | CCC(=O)NC(CC(=O)Nc1ccc(Br)cn1)C(=O)Nc1ccc(-c2ccccc2S(N)(=O)=O)cc1 (configuration not stated) | 36.5 | –
40 | NCC(=O)NC(CC(=O)Nc1ccc(Br)cn1)C(=O)Nc1ccc(-c2ccccc2S(N)(=O)=O)cc1 (configuration not stated) | 150 | –
41 | NS(=O)(=O)c1ccccc1-c1ccc(NC(=O)C(CC(=O)Nc2ccc(Br)cn2)NC(=O)C(F)(F)F)cc1 (configuration not stated) | 200 | –
42 | CN(C)Cc1nccn1-c1ccc(C(=O)N[C@H](CC(=O)Nc2ccc(Cl)cn2)C(=O)N2CCCCC2)cc1 | 7.6 | –
43 | COCCN(C)Cc1ccccc1-c1ccc(C(=O)N[C@H](CC(=O)Nc2ccc(Cl)cn2)C(=O)N2CCCCC2)cc1 | 4.8 | –
44 | NS(=O)(=O)c1ccccc1-c1ccc(C(=O)NCCNC(=O)c2ccccc2)cc1 | > 10000 | –
45 | CC(=O)NC(CC(=O)Nc1ccc(Br)cn1)C(=O)Nc1ccc(-c2ccccc2S(N)(=O)=O)cc1 (configuration not stated) | 182 | –
46 | O=C(C[C@H](NC(=O)c1ccc(-c2ccccc2CN2CCCC2)cc1)C(=O)N1CCCCC1)Nc1ccc(Br)cn1 | 230 | –
47 | CN(C)Cc1nccn1-c1ccc(C(=O)N[C@@H](CC(=O)Nc2ccc(Cl)cn2)C(=O)N2CCCCC2)cc1 | 9.2 | –
48 | CN(C)C(=N)c1ccc(C(=O)N[C@@H](CC(=O)Nc2ccc(Cl)cn2)C(=O)N2CCCCC2)cc1 | 24 | –
49 | NS(=O)(=O)c1ccccc1-c1ccc(NC(=O)C(CC(=O)Nc2ccc(Br)cn2)NC(=O)c2ccncc2)cc1 (configuration not stated) | 43.8 | –
50 | COc1ccc(C(=O)NCCNC(=O)c2ccc(-c3ccccc3S(N)(=O)=O)cc2)cc1 | 2600 | –

Row | Compound | IC50 [1] [nM] | further results
51 | NS(=O)(=O)c1ccccc1-c1ccc(C(=O)NCCNS(=O)(=O)c2cc3ccc(Cl)cc3s2)cc1 | 1090 | –
52 | CCOC(=O)CNC(=O)C(CC(=O)Nc1ccc(Br)cn1)NC(=O)c1ccc(-c2ccccc2S(N)(=O)=O)cc1 (configuration not stated) | 3.3 | –
53 | COCCN(C)Cc1ccccc1-c1ccc(C(=O)N[C@H](CC(=O)Nc2ccc(Br)cn2)C(=O)N2CCCCC2)cc1 | 1.3 | –
54 | NS(=O)(=O)c1ccccc1-c1ccc(C(=O)NCCNS(=O)(=O)c2ccc3cc(Br)ccc3c2)cc1 | 9300 | –
55 | O=C(C[C@H](NC(=O)c1ccc(-c2ccccc2CN2CCCC2)cc1)C(=O)N1CCCCC1)Nc1ccc(Cl)cn1 | 2.7 | –
56 | NS(=O)(=O)c1ccccc1-c1ccc(C(=O)NCCNC(=O)c2ccc(Cl)s2)cc1 | 5.7 | –
57 | CN1CCN=C1c1ccc(C(=O)N[C@H](CC(=O)Nc2ccc(Cl)cn2)C(=O)N2CCCCC2)cc1 | 26 | –
58 | O=C(C[C@H](NC(=O)c1ccc(-c2ccccc2CN2CCOCC2)cc1)C(=O)N1CCCCC1)Nc1ccc(Br)cn1 | 290 | –
59 | CNC(=O)C(CC(=O)Nc1ccc(Br)cn1)NC(=O)c1ccc(-c2ccccc2S(N)(=O)=O)cc1 (configuration not stated) | 17.4 | –
60 | CN(C)Cc1nccn1-c1ccc(C(=O)N[C@@H](CC(=O)Nc2ccc(Br)cn2)C(=O)N2CCCCC2)cc1 | 330 | –
61 | O=C(C[C@@H](NC(=O)c1ccc(-c2ccccc2CN2CCOCC2)cc1)C(=O)N1CCCCC1)Nc1ccc(Cl)cn1 | 1.8 | –
62 | CN1CCN(C(=O)C(CC(=O)Nc2ccc(Br)cn2)NC(=O)c2ccc(-c3ccccc3S(N)(=O)=O)cc2)CC1 (configuration not stated) | 26.5 | –
63 | NS(=O)(=O)c1ccccc1-c1ccc(C(=O)NC(CC(=O)Nc2ccc(Br)cn2)C(=O)N2CCCC2)cc1 (configuration not stated) | 14.5 | –
64 | CN1CCN=C1c1ccc(C(=O)N[C@H](CC(=O)Nc2ccc(Br)cn2)C(=O)N2CCCCC2)cc1 | 8.2 | –
65 | NS(=O)(=O)c1ccccc1-c1ccc(C(=O)NC(CC(=O)Nc2ccc(Br)cn2)C(=O)N2CCOCC2)cc1 (configuration not stated) | 22.9 | –
66 | NS(=O)(=O)c1ccccc1-c1ccc(C(=O)NC(CC(=O)Nc2ccc(Br)cn2)C(=O)N2CCNCC2)cc1 (configuration not stated) | 90.9 | –
67 | O=C(C[C@@H](NC(=O)c1ccc(-c2ccccc2CN2CCCC2)cc1)C(=O)N1CCCCC1)Nc1ccc(Br)cn1 | 1 | –
68 | CC(=O)NC(CNC(=O)c1ccc(-c2ccccc2S(N)(=O)=O)cc1)C(=O)Nc1ccc(Br)cn1 (configuration not stated) | 805 | –
69 | NS(=O)(=O)c1ccccc1-c1ccc(C(=O)NCCC(=O)Nc2ccc(Cl)cc2)cc1 | 17 | –
70 | NS(=O)(=O)c1ccccc1-c1ccc(NC(=O)CCC(=O)Nc2ccc(Cl)cn2)cc1 | 37 | –
71 | NS(=O)(=O)c1ccccc1-c1ccc(C(=O)NCCNC(=O)c2cccc(Cl)c2)cc1 | 1500 | –
72 | NS(=O)(=O)c1ccccc1-c1ccc(C(=O)NCC(NC(=O)Nc2ccccc2)C(=O)Nc2ccc(Br)cn2)cc1 (configuration not stated) | 8500 | –
73 | NC(CNC(=O)c1ccc(-c2ccccc2S(N)(=O)=O)cc1)C(=O)Nc1ccc(Br)cn1 (configuration not stated) | 1650 | –
74 | NS(=O)(=O)c1ccccc1-c1ccc(NC(=O)C(CC(=O)Nc2ccc(Br)cn2)NC(=O)C2CCCNC2)cc1 (configuration not stated) | 442 | –
75 | CN1CCN=C1c1ccc(C(=O)N[C@@H](CC(=O)Nc2ccc(Cl)cn2)C(=O)N2CCCCC2)cc1 | 28 | –
